The structures appear in SMILES notation.

One data set deals with Vero. The experiment in a line: Cytotoxicity against African green monkey Vero cells assessed as reduction in cell viability after 72 hrs by resazurin dye based assay. Conditions: Chlorocebus sabaeus.
The test system of data set [1] is Trypanosoma cruzi. Briefly: Trypanocidal activity against Trypanosoma cruzi IRHOD/CO/2008/SN3 DTU 1 epimastigotes after 72 hrs by resazurin dye based assay. Format: functional, organism-based. The settings on record: IRHOD/CO/2008/SN3 DTU 1, 72 h.
Data set [2] concerns Trypanosoma cruzi. Briefly: Trypanocidal activity against Trypanosoma cruzi TINF/CH/1956/Tulahuen DTU 6 epimastigotes after 72 hrs by resazurin dye based assay. It is filed as functional, organism-based. Conditions: TINF/CH/1956/Tulahuen DTU 6, 72 h.
A short description of data set [3]: Selectivity index, ratio of IC50 for African green monkey Vero cells to IC50 for Trypanosoma cruzi MHOM/Pe/2011/Arequipa DTU 5 epimastigotes. It is filed as toxicity. Conditions: read-out: Ratio IC50.
Data set [4] can be described thus: Selectivity index, ratio of IC50 for African green monkey Vero cells to IC50 for Trypanosoma cruzi TINF/CH/1956/Tulahuen DTU 6 epimastigotes. Format: toxicity. The settings on record: read-out: Ratio IC50.
A short description of data set [5]: Selectivity index, ratio of IC50 for African green monkey Vero cells to IC50 for Trypanosoma cruzi IRHOD/CO/2008/SN3 DTU 1 epimastigotes. Conditions: read-out: Ratio IC50. It is filed as toxicity.
Data set [6] has as its system Trypanosoma cruzi. The experiment in a line: Trypanocidal activity against Trypanosoma cruzi MHOM/Pe/2011/Arequipa DTU 5 epimastigotes after 72 hrs by resazurin dye based assay. Conditions: MHOM/Pe/2011/Arequipa DTU 5, 72 h. Format: functional, organism-based.
Data set [7] has as its system Trypanosoma cruzi. Briefly: Trypanocidal activity against Trypanosoma cruzi TINF/CH/1956/Tulahuen DTU 6 trypomastigotes derived from infected Balb/c mouse after 72 hrs by resazurin dye based assay. Format: functional, organism-based. Conditions: TINF/CH/1956/Tulahuen DTU 6, 72 h.
For data set [8], the system named is Trypanosoma cruzi. The experiment in a line: Trypanocidal activity against Trypanosoma cruzi MHOM/Pe/2011/Arequipa DTU 5 amastigotes infected in African green monkey Vero cells after 72 hrs by Giemsa-staining based microscopic assay. Format: functional, organism-based. The settings on record: MHOM/Pe/2011/Arequipa DTU 5, Vero.
Data set [9] can be described thus: Selectivity index, ratio of IC50 for African green monkey Vero cells to IC50 for Trypanosoma cruzi TINF/CH/1956/Tulahuen DTU 6 amastigotes infected in African green monkey Vero cells. It is filed as toxicity. Conditions: read-out: Ratio IC50.
A short description of data set [10]: Selectivity index, ratio of IC50 for African green monkey Vero cells to IC50 for Trypanosoma cruzi MHOM/Pe/2011/Arequipa DTU 5 trypomastigotes derived from infected Balb/c mouse. Format: toxicity. The settings on record: read-out: Ratio IC50.
For data set [11], the system named is Trypanosoma cruzi. Briefly: Trypanocidal activity against Trypanosoma cruzi MHOM/Pe/2011/Arequipa DTU 5 trypomastigotes derived from infected Balb/c mouse after 72 hrs by resazurin dye based assay. Format: functional, organism-based. Conditions: MHOM/Pe/2011/Arequipa DTU 5, 72 h.
Data set [12] deals with Trypanosoma cruzi. The experiment in a line: Trypanocidal activity against Trypanosoma cruzi IRHOD/CO/2008/SN3 DTU 1 amastigotes infected in African green monkey Vero cells after 72 hrs by Giemsa-staining based microscopic assay. Format: functional, organism-based. Conditions: IRHOD/CO/2008/SN3 DTU 1, Vero.
Data set [13] is described as follows: Selectivity index, ratio of IC50 for African green monkey Vero cells to IC50 for Trypanosoma cruzi IRHOD/CO/2008/SN3 DTU 1 trypomastigotes derived from infected Balb/c mouse. It is filed as toxicity. The settings on record: read-out: Ratio IC50.
Data set [14] is described as follows: Selectivity index, ratio of IC50 for African green monkey Vero cells to IC50 for Trypanosoma cruzi IRHOD/CO/2008/SN3 DTU 1 amastigotes infected in African green monkey Vero cells. It is filed as toxicity. The settings on record: read-out: Ratio IC50.
Data set [15] is described as follows: Selectivity index, ratio of IC50 for African green monkey Vero cells to IC50 for Trypanosoma cruzi TINF/CH/1956/Tulahuen DTU 6 trypomastigotes derived from infected Balb/c mouse. It is filed as toxicity. Conditions: read-out: Ratio IC50.
Data set [16] concerns Trypanosoma cruzi. Briefly: Trypanocidal activity against Trypanosoma cruzi IRHOD/CO/2008/SN3 DTU 1 trypomastigotes derived from infected Balb/c mouse after 72 hrs by resazurin dye based assay. It is filed as functional, organism-based. The settings on record: IRHOD/CO/2008/SN3 DTU 1, 72 h.
The nature of data set [17]: Selectivity index, ratio of IC50 for African green monkey Vero cells to IC50 for Trypanosoma cruzi MHOM/Pe/2011/Arequipa DTU 5 amastigotes infected in African green monkey Vero cells. Conditions: read-out: Ratio IC50. It is filed as toxicity.
Data set [18] concerns Trypanosoma cruzi. Briefly: Trypanocidal activity against Trypanosoma cruzi TINF/CH/1956/Tulahuen DTU 6 amastigotes infected in African green monkey Vero cells after 72 hrs by Giemsa-staining based microscopic assay. It is filed as functional, organism-based. The settings on record: TINF/CH/1956/Tulahuen DTU 6, Vero.

For `CCCCCCCCCCCCNc1c(N(C)CCCN(C)C)c(=O)c1=O`, the IC50 in the data set on Vero was 128 µM; with Trypanosoma cruzi [1], 37.5 µM; with Trypanosoma cruzi [2] it was 49.5 µM; in the data set with Trypanosoma cruzi [6] it was 64.6 µM. Also, the selectivity ratio was 2 in data set [3], 2.6 in data set [4] and 3.4 in data set [5].

Consider `CCCCCCCCCCCC[N+](C)(C)CCCN(C)c1c(O)c(=O)c1=O`, for which the IC50 was found to be 160 µM with Vero, 33.1 µM in the data set with Trypanosoma cruzi [1], 66.1 µM with Trypanosoma cruzi [2] and 22.1 µM with Trypanosoma cruzi [6]. Moreover, the selectivity ratio was 7.2 in data set [3], 2.4 in data set [4] and 4.8 in data set [5].

In the case of `CCCCCCCCCCCCCCCCOP(=O)([O-])OCC[N+](C)(C)C` [MILTEFOSINE], the IC50 with Trypanosoma cruzi [7] is 20.1 µM; with Vero it was 21.6 µM; with Trypanosoma cruzi [1] it was 55.9 µM; in the data set with Trypanosoma cruzi [2] it was 22.9 µM; in the data set with Trypanosoma cruzi [8] it was 29.6 µM; in the data set with Trypanosoma cruzi [11], 18.8 µM. Also, the IC50 came out at 39.7 µM in the data set with Trypanosoma cruzi [12], 20.8 µM with Trypanosoma cruzi [6], 34.8 µM with Trypanosoma cruzi [16] and 31.8 µM with Trypanosoma cruzi [18]. The selectivity ratio in [3] was determined as 1; in [4] it was 0.9; in data set [5], 0.4; in data set [9] it was 0.7; in data set [10], 1.2; in data set [13], 0.6. Besides, the selectivity ratio is 0.5 in data set [14], 1.1 in data set [15] and 0.7 in [17].

`CN(C)CCCN(C)c1c(N(C)CCCN(C)C)c(=O)c1=O`: the IC50 amounted to 1140 µM with Vero, 404 µM in the data set on Trypanosoma cruzi [1], 360 µM in the data set with Trypanosoma cruzi [2] and 107 µM in the data set on Trypanosoma cruzi [6]. Further, the selectivity ratio in data set [3] amounted to 10.6; in data set [4], 3.2; in data set [5], 2.8.

As to `CCCCNc1c(N(C)CCCN(C)C)c(=O)c1=O`, the IC50 with Trypanosoma cruzi [7] was 8.9 µM; in the data set on Vero, 439 µM; in the data set with Trypanosoma cruzi [1], 15.2 µM; in the data set on Trypanosoma cruzi [2], 9.1 µM; in the data set with Trypanosoma cruzi [8], 14.7 µM; in the data set on Trypanosoma cruzi [11], 10.4 µM. Besides, the half-inhibitory concentration (IC50) in the data set with Trypanosoma cruzi [12] was determined as 13.1 µM; in the data set with Trypanosoma cruzi [6] it was 12.4 µM; in the data set with Trypanosoma cruzi [16], 7.5 µM; in the data set on Trypanosoma cruzi [18] it was 11.7 µM. The selectivity ratio in data set [3] stood at 35.4; in data set [4], 48.3; in data set [5] it was 28.9; in data set [9], 37.5; in data set [10] it was 42.2; in data set [13] it was 58.6. The selectivity ratio in data set [14] came out at 33.5; in [15], 49.3; in [17], 29.9.

Turning to `CN(C)CCCN(C)c1c(N)c(=O)c1=O`, the IC50 in the data set with Trypanosoma cruzi [7] came to 33.6 µM; with Vero, 1070 µM; with Trypanosoma cruzi [1], 33.7 µM; in the data set on Trypanosoma cruzi [2] it was 42.6 µM; with Trypanosoma cruzi [8], 39.6 µM; in the data set with Trypanosoma cruzi [11] it was 33.2 µM. In addition, the IC50 came out at 62.6 µM in the data set on Trypanosoma cruzi [12], 42.3 µM with Trypanosoma cruzi [6], 30.2 µM in the data set on Trypanosoma cruzi [16] and 51.3 µM in the data set with Trypanosoma cruzi [18]. The selectivity ratio in data set [3] turned out to be 25.3; in data set [4] it was 25.1; in [5], 31.8; in [9], 20.8; in data set [10] it was 32.2; in data set [13], 35.4. Moreover, the selectivity ratio amounted to 17.1 in data set [14], 31.8 in [15] and 27 in data set [17].

Turning to `CCNc1c(N(C)CCCN(C)C)c(=O)c1=O`, the IC50 in the data set with Trypanosoma cruzi [7] was 26.6 µM; in the data set with Vero it was 900 µM; in the data set on Trypanosoma cruzi [1] it was 41 µM; in the data set with Trypanosoma cruzi [2], 27.8 µM; with Trypanosoma cruzi [8] it was 27.8 µM; in the data set on Trypanosoma cruzi [11], 29.1 µM. For the same molecule, the IC50 in the data set on Trypanosoma cruzi [12] was found to be 54.5 µM; in the data set with Trypanosoma cruzi [6] it was 41.3 µM; with Trypanosoma cruzi [16], 28 µM; with Trypanosoma cruzi [18], 31.6 µM. Besides, the selectivity ratio in [3] stood at 21.8; in data set [4], 32.4; in data set [5], 22; in data set [9], 28.5; in data set [10] it was 30.9; in [13], 32.1. For the same molecule, the selectivity ratio in data set [14] came out at 16.5; in [15] it was 33.8; in data set [17], 32.3.

With `CCCCCCCCNc1c(N(C)CCCN(C)C)c(=O)c1=O`, the IC50 was 1150 µM in the data set with Vero, 87.8 µM with Trypanosoma cruzi [1], 82 µM in the data set with Trypanosoma cruzi [2] and 102 µM in the data set on Trypanosoma cruzi [6]. For the same molecule, the selectivity ratio in [3] was determined as 11.4; in data set [4], 14.2; in [5], 13.2.

As for `CCCCCCCCCCCCOc1c(N(C)CCCN(C)C)c(=O)c1=O`, the IC50 in the data set with Trypanosoma cruzi [7] turned out to be 19.1 µM; in the data set on Vero, 291 µM; in the data set on Trypanosoma cruzi [1] it was 19.4 µM; in the data set on Trypanosoma cruzi [2], 14.6 µM; in the data set on Trypanosoma cruzi [12] it was 28.4 µM; in the data set with Trypanosoma cruzi [6], 36.2 µM. Moreover, the IC50 came to 24.1 µM with Trypanosoma cruzi [16] and 25.5 µM in the data set on Trypanosoma cruzi [18]. Besides, the selectivity ratio amounted to 8 in [3]; 19.9 in data set [4]; 15 in data set [5]; 11.4 in [9]; 12.1 in data set [13]; 10.3 in data set [14]. Further, the selectivity ratio in data set [15] was 15.3.

Turning to `CCCCCCCCCCCC[N+](C)(C)CCCN(C)c1c(OCC)c(=O)c1=O`, the IC50 in the data set on Vero stood at 353 µM; in the data set on Trypanosoma cruzi [1], 74.5 µM; in the data set on Trypanosoma cruzi [2], 89.1 µM; in the data set with Trypanosoma cruzi [6] it was 63.3 µM. The selectivity ratio was determined as 5.6 in data set [3], 4 in [4] and 4.7 in data set [5].

As for `CN(C)CCCN(C)c1c(NCCCN(C)CCCNc2c(N(C)CCCN(C)C)c(=O)c2=O)c(=O)c1=O`, the IC50 in the data set on Vero came out at 2170 µM; in the data set on Trypanosoma cruzi [1], 311 µM; in the data set with Trypanosoma cruzi [2], 241 µM; in the data set with Trypanosoma cruzi [6], 177 µM. The selectivity ratio was 12.2 in [3], 9 in data set [4] and 7 in data set [5].

Values taken from ChEMBL document CHEMBL4411344, “Synthesis and biological evaluation of new long-chain squaramides as anti-chagasic agents in the BALB/c mouse model” (Bioorg Med Chem, 2019).
